Measurements taken from patent US11802111B2, “Cyclobutyl amide monoacylglycerol lipase modulators” (Janssen Pharmaceutica NV, priority 2020, dated 2023).

molecular target: human MGL from HeLa cells (Homo sapiens (Human), UniProt Q99685); experiment: MGL in vitro activity assay ([glycerol-1,3-3H]-oleoyl glycerol hydrolysis, activated carbon filtration); format: biochemical; details: 300 nM [Glycerol-1,3-3H]-oleoyl glycerol, one hour
Protocol: The assay used to measure the in vitro activity of MGL is adapted from the assay used for another serine hydrolase (FAAH) described in Wilson et al., 2003 (A high-throughput-compatible assay for determining the activity of fatty acid amide hydrolase. Wilson S J, Lovenberg T W, Barbier A J. Anal Biochem. 2003 Jul. 15; 318(2):270-5). The assay consists of combining endogenously expressed MGL from HeLa cells with test compounds, adding [glycerol-1,3-^3H]-oleyl glycerol, incubating for one hour, and then measuring the amount of cleaved [1,3-^3H]-glycerol that passes through an activated carbon filter. The amount of cleaved, tritiated glycerol passing through the carbon filter is proportional to the activity of the MGL enzyme in a particular well/test condition.
Standard conditions for this assay combine 300 nM [Glycerol-1,3-^3H]-oleoyl glycerol with human MGL from HeLa cells and test compounds for one hour, after which the reaction is filtered through activated carbon and tritium is measured in the flow through. The test compound concentration in screening mode is 10 μM, while the highest compound concentration in IC50 assays is determined empirically. MGL is the predominant hydrolase in HeLa cells/cell homogenates.

human MGL from HeLa cells, sequence (Q99685 whole entry): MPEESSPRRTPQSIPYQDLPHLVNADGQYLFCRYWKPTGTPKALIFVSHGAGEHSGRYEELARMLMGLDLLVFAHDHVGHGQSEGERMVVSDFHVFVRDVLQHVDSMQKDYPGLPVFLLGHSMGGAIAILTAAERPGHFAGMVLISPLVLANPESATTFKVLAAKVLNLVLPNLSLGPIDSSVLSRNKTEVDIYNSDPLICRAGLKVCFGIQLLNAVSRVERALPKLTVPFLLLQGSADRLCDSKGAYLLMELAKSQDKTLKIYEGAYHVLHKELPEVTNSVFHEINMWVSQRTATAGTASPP

Row | SMILES | IC50 [nM]
1 | CC(C)c1cccc(C[C@@H]2CCC3(C2)CN(C(=O)[C@H]2C[C@@](C)(O)C2)C3)c1 (racemic) [Example 181, (rac)-((1s,3s)-3-Hydroxy-3-methylcyclobutyl)(6-(3-isopropylbenzyl)-2-azaspiro[3.4]octan-2-yl)methanone] | 4.6
2 | CC(C)c1cccc([C@@H]2CCC3(C2)CN(C(=O)[C@H]2C[C@@](C)(O)C2)C3)c1 (stereo in doubt) [Example 47, ((1s,3*S)-3-Hydroxy-3-methylcyclobutyl)((*R)-6-(3-isopropylphenyl)-2-azaspiro[3.4]octan-2-yl)methanone] | 21
3 | Cc1cnc(OC2CCC3(CC2)CN(C(=O)[C@H]2C[C@@](C)(O)C2)C3)c(C)c1 [Example 430, (7-((3,5-Dimethylpyridin-2-yl)oxy)-2-azaspiro[3.5]nonan-2-yl)((1s,3s)-3-hydroxy-3-methylcyclobutyl)methanone] | 12
4 | Cn1ncc2ccc(CC3CCC4(CC3)CN(C(=O)[C@H]3C[C@@](C)(O)C3)C4)cc21 [Example 402, ((1s,3s)-3-Hydroxy-3-methylcyclobutyl)(7-((1-methyl-1H-indazol-6-yl)methyl)-2-azaspiro[3.5]nonan-2-yl)methanone] | 185
5 | CC(C)n1ccc2ccc(C3CCC4(CC3)CN(C(=O)[C@H]3C[C@@](C)(O)C3)C4)nc21 [Example 385, ((1s,3s)-3-Hydroxy-3-methylcyclobutyl)(7-(1-isopropyl-1H-pyrrolo[2,3-b]pyridin-6-yl)-2-azaspiro[3.5]nonan-2-yl)methanone] | 30
6 | Cc1c(Cl)cccc1OC1CCC2(CC1)CN(C(=O)[C@H]1C[C@@](C)(O)C1)C2 [Example 413, (7-(3-Chloro-2-methylphenoxy)-2-azaspiro[3.5]nonan-2-yl)((1s,3s)-3-hydroxy-3-methylcyclobutyl)methanone] | 22
7 | Cc1ccccc1CC1CCC2(CC1)CN(C(=O)[C@H]1C[C@@](C)(O)C1)C2 [Example 236, ((1s,3s)-3-Hydroxy-3-methylcyclobutyl)(7-(2-methylbenzyl)-2-azaspiro[3.5]nonan-2-yl)methanone] | 49
8 | Cc1ccc(Cl)c(OC2CCC3(CC2)CN(C(=O)[C@H]2C[C@@](C)(O)C2)C3)n1 [Example 435, (7-((3-Chloro-6-methylpyridin-2-yl)oxy)-2-azaspiro[3.5]nonan-2-yl)((1s,3s)-3-hydroxy-3-methylcyclobutyl)methanone] | 8.4
9 | COc1ccc(C)c(C2CCC3(CC2)CN(C(=O)[C@H]2C[C@@](C)(O)C2)C3)c1 [Example 363, ((1s,3s)-3-Hydroxy-3-methylcyclobutyl)(7-(5-methoxy-2-methylphenyl)-2-azaspiro[3.5]nonan-2-yl)methanone] | 164
10 | C[C@]1(O)C[C@@H](C(=O)N2CC3(CCC(Oc4ccc(C(F)F)cn4)CC3)C2)C1 [Example 423, (7-((5-(Difluoromethyl)pyridin-2-yl)oxy)-2-azaspiro[3.5]nonan-2-yl)((1s,3s)-3-hydroxy-3-methylcyclobutyl)methanone] | 188
11 | C[C@]1(O)C[C@@H](C(=O)N2CCC3(CCC(c4ccc(C(F)(F)F)cc4)C3)CC2)C1 (mixture of isomers) [Example 152, (rac)-((1s,3s)-3-Hydroxy-3-methylcyclobutyl)(2-(4-(trifluoromethyl)phenyl)-8-azaspiro[4.5]decan-8-yl)methanone] | 3.3
12 | CC(C)(C)c1cccc(C2CCC3(CC2)CN(C(=O)[C@H]2C[C@@](C)(O)C2)C3)n1 [Example 116, (7-(6-(tert-Butyl)pyridin-2-yl)-2-azaspiro[3.5]nonan-2-yl)((1s,3s)-3-hydroxy-3-methylcyclobutyl)methanone] | 4.4
13 | CC(C)c1cccc(C2CC3(CCN(C(=O)[C@H]4C[C@@](C)(O)C4)C3)C2)c1 (stereo partly shown) [Example 36, ((1s,3s)-3-Hydroxy-3-methylcyclobutyl)(2-(3-isopropylphenyl)-6-azaspiro[3.4]octan-6-yl)methanone] | 153
14 | CC(C)c1cc(F)cc(C2CCC3(C2)CN(C(=O)[C@H]2C[C@@](C)(O)C2)C3)c1 (mixture of isomers) [Example 125, (rac)-(6-(3-Fluoro-5-isopropylphenyl)-2-azaspiro[3.4]octan-2-yl)((1s,3s)-3-hydroxy-3-methylcyclobutyl)methanone] | 8.3
15 | CC(C)(C)c1cccc(OC2CCC3(CC2)CN(C(=O)[C@H]2C[C@@](C)(O)C2)C3)n1 [Example 425, (7-((6-(tert-Butyl)pyridin-2-yl)oxy)-2-azaspiro[3.5]nonan-2-yl)((1s,3s)-3-hydroxy-3-methylcyclobutyl)methanone] | 7.8

Other lines, results leading:

Row | IC50 [nM] | SMILES
16 | 4.7 | CC(C)c1cccc(CC2CC3(C2)CN(C(=O)[C@H]2C[C@@](C)(O)C2)C3)c1 [Example 186, ((1s,3s)-3-Hydroxy-3-methylcyclobutyl)(6-(3-isopropylbenzyl)-2-azaspiro[3.3]heptan-2-yl)methanone]
17 | 23 | C[C@]1(O)C[C@@H](C(=O)N2CC3(CC[C@@H](c4cccc(OC(F)(F)F)c4)C3)C2)C1 (stereo in doubt) [Example 41, ((1s,3*S)-3-Hydroxy-3-methylcyclobutyl)((*R)-6-(3-(trifluoromethoxy)phenyl)-2-azaspiro[3.4]octan-2-yl)methanone]
18 | 4.6 | CCc1cc(C2CCC3(CC2)CN(C(=O)[C@H]2C[C@@](C)(O)C2)C3)cc(C(F)(F)F)c1 [Example 146, (7-(3-Ethyl-5-(trifluoromethyl)phenyl)-2-azaspiro[3.5]nonan-2-yl)((1s,3s)-3-hydroxy-3-methylcyclobutyl)methanone]
19 | 29 | C[C@]1(O)C[C@@H](C(=O)N2CC3(CCC(c4cccc(C(F)(F)F)c4)C3)C2)C1 (mixture of isomers) [Example 61, (rac)-((1s,3s)-3-Hydroxy-3-methylcyclobutyl)(6-(3-(trifluoromethyl)phenyl)-2-azaspiro[3.4]octan-2-yl)methanone]
20 | 45 | Cc1ccc(C2CC3(C2)CN(C(=O)[C@H]2C[C@@](C)(O)C2)C3)cc1OC(F)(F)F [Example 23, ((1s,3s)-3-Hydroxy-3-methylcyclobutyl)(6-(4-methyl-3-(trifluoromethoxy)phenyl)-2-azaspiro[3.3]heptan-2-yl)methanone]
21 | 10 | Cc1ccc(CC2CC3(C2)CN(C(=O)[C@H]2C[C@@](C)(O)C2)C3)nc1OC(C)C [Example 279, ((1s,3s)-3-Hydroxy-3-methylcyclobutyl)(6-((6-isopropoxy-5-methylpyridin-2-yl)methyl)-2-azaspiro[3.3]heptan-2-yl)methanone]
22 | 23 | C[C@]1(O)C[C@@H](C(=O)N2CC3(CCC(c4cccc(OC(F)(F)F)c4)C3)C2)C1 (mixture of isomers) [Example 40, (rac)-((1s,3s)-3-Hydroxy-3-methylcyclobutyl)(6-(3-(trifluoromethoxy)phenyl)-2-azaspiro[3.4]octan-2-yl)methanone]
23 | 840 | C[C@]1(O)C[C@@H](C(=O)N2CC3(CC(Cn4ccc(C(F)(F)F)n4)C3)C2)C1 [Example 237, ((1s,3s)-3-Hydroxy-3-methylcyclobutyl)(6-((3-(trifluoromethyl)-1H-pyrazol-1-yl)methyl)-2-azaspiro[3.3]heptan-2-yl)methanone]
24 | 47 | Cc1c(OC2CC3(C2)CN(C(=O)[C@H]2C[C@@](C)(O)C2)C3)cccc1C(F)(F)F [Example 252, ((1s,3s)-3-Hydroxy-3-methylcyclobutyl)(6-(2-methyl-3-(trifluoromethyl)phenoxy)-2-azaspiro[3.3]heptan-2-yl)methanone]
25 | 273 | CC(C)(C)c1cccc(CC2CC3(C2)CN(C(=O)[C@H]2C[C@@](C)(O)C2)C3)n1 [Example 233, (6-((6-(tert-Butyl)pyridin-2-yl)methyl)-2-azaspiro[3.3]heptan-2-yl)((1s,3s)-3-hydroxy-3-methylcyclobutyl)methanone]
26 | 9.9 | CC(C)(C)c1cccc(C2CC3(C2)CN(C(=O)[C@H]2C[C@@](C)(O)C2)C3)c1 [Example 1, (6-(3-(tert-Butyl)phenyl)-2-azaspiro[3.3]heptan-2-yl)((1s,3s)-3-hydroxy-3-methylcyclobutyl)methanone]
27 | 16 | CC(C)c1ccc2ccn(CC3CC4(C3)CN(C(=O)[C@H]3C[C@@](C)(O)C3)C4)c2n1 [Example 290, ((1s,3s)-3-Hydroxy-3-methylcyclobutyl)(6-((6-isopropyl-1H-pyrrolo[2,3-b]pyridin-1-yl)methyl)-2-azaspiro[3.3]heptan-2-yl)methanone]
28 | 110 | Cc1cc(C(F)(F)F)cc(OC2CCC3(CC2)CN(C(=O)[C@H]2C[C@@](C)(O)C2)C3)n1 [Example 447, ((1s,3s)-3-Hydroxy-3-methylcyclobutyl)(7-((6-methyl-4-(trifluoromethyl)pyridin-2-yl)oxy)-2-azaspiro[3.5]nonan-2-yl)methanone]
29 | 98 | C[C@]1(O)C[C@@H](C(=O)N2CC3(CCC(Cc4ccccc4)C3)C2)C1 (mixture of isomers) [Example 234, (rac)-(6-Benzyl-2-azaspiro[3.4]octan-2-yl)((1s,3s)-3-hydroxy-3-methylcyclobutyl)methanone]
30 | 14 | Cc1ccccc1CC1CC2(C1)CN(C(=O)[C@H]1C[C@@](C)(O)C1)C2 [Example 184, ((1s,3s)-3-Hydroxy-3-methylcyclobutyl)(6-(2-methylbenzyl)-2-azaspiro[3.3]heptan-2-yl)methanone]
31 | 14 | Cc1cc(OC2CC3(C2)CN(C(=O)[C@H]2C[C@@](C)(O)C2)C3)ccc1C(F)(F)F [Example 247, ((1s,3s)-3-Hydroxy-3-methylcyclobutyl)(6-(3-methyl-4-(trifluoromethyl)phenoxy)-2-azaspiro[3.3]heptan-2-yl)methanone]
